From US20260062422A1 (Halda Therapeutics OpCo, Inc., priority 2022, published 2026)

Columns and labels:
BRD4-BD1 = target: T1, BRD4-BD1 (Homo sapiens, UniProt O60885); assay: bromoKdELECT assay for binding affinity to BRD4-BD1; settings: Table 6
T1 construct: made in house; host or cells: T7 phage grown in an E. coli host derived from BL21
Method: Compounds were tested using a bromoKdELECT assay. T7 phage strains displaying bromodomains were grown in parallel in 24-well blocks in an E. coli host derived from the BL21 strain. E. coli were grown to log-phase and infected with T7 phage from a frozen stock (multiplicity of infection=0.4) and incubated with shaking at 32° C. until lysis (90-150 minutes). The lysates were centrifuged (5,000×g) and filtered (0.2 μm) to remove cell debris. Streptavidin-coated magnetic beads were treated with biotinylated small molecule or acetylated peptide ligands for 30 minutes at room temperature to generate affinity resins for bromodomain assays. The liganded beads were blocked with excess biotin and washed with blocking buffer (SeaBlock (Pierce), 1% BSA, 0.05% Tween 20, 1 mM DTT) to remove unbound ligand and to reduce nonspecific phage binding. Binding reactions were assembled by combining bromodomains, liganded affinity beads, and test compounds in 1× binding buffer (17% SeaBlock, 0.33×PBS, 0.04% Tween 20, 0.02% BSA, 0.004% Sodium azide, 7.4 mM DTT). Test compounds were prepared as 1000× stocks in 100% DMSO. Kds were determined using an 11-point 3-fold compound dilution series with one DMSO control point. All compounds for Kd measurements are distributed by acoustic transfer (non-contact dispensing) in 100% DMSO. The compounds were then diluted directly into the assays such that the final concentration of DMSO was 0.09%. All reactions performed in polypropylene 384-well plates. Each was a final volume of 0.02 ml. The assay plates were incubated at room temperature with shaking for 1 hour and the affinity beads were washed with wash buffer (1×PBS, 0.05% Tween 20). The beads were then resuspended in elution buffer (1×PBS, 0.05% Tween […] non-biotinylated affinity ligand) and incubated at room temperature with shaking for 30 minutes. The bromodomain concentration in the eluates was measured by qPCR.

VCaP cells = assay: Cellular growth inhibition assay for VCaP cells, CellTiter-Glo; format: cell-based, human; settings: Homo sapiens, VCaP, 72 h, 72 hours treatment, CellTiter-Glo 2.0
Procedure, shortened: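 GI50 values come from four-parameter curve fits of luminescence data normalized to a zero baseline. Compound, in medium with 0.5% DMSO, was added one day after plating and left for 72 h before CellTiter-Glo 2.0 addition.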

[1] = test system: T-Rex 293 cell line SC cells lacking increased expression of progesterone receptor isoform B protein; assay: Cellular growth inhibition, T-Rex 293 SC cells without doxycycline, Example 45; format: cell-based; settings: T-Rex 293 SC cells not exposed to doxycycline, 72 hours treatment, CellTiter-Glo 2.0
Method: The following types of cells were prepared for this experiment: (i) a T-Rex 293 cell line having increased expression of progesterone receptor isoform B protein due to exposure to doxycycline and (ii) a T-Rex 293 cell line lacking increased expression of progesterone receptor isoform B protein. Ability of the test compounds to inhibit proliferation of the foregoing cell types was evaluated according to the procedures set forth below.
The doxycycline-inducible progesterone receptor isoform B protein expressing cell line was established using the following protocol: T-Rex 293 cells were purchased from Invitrogen (Cat #R71007) and transfected using Lipofectamine 2000 with the wild-type progesterone receptor B protein sequence cloned into the pcDNA4/TO vector. Transfected cells were selected using 400 μg/mL Zeocin (Invitrogen Cat #R25001). Following selection, single clones were raised and maintained in Dulbecco's Modified Eagle Medium (DMEM) supplemented with 10% w/w Tetracycline-free fetal bovine serum (FBS) and 250 μg/mL Zeocin. Clones were analyzed for expression of progesterone receptor isoform B protein in the presence and absence of 10 ng/mL doxycycline (Sigma Cat #D9891), and a single doxycycline-inducible clone (hereinafter “SC”) was selected for use in downstream assays.
The SC cells were seeded on poly-D-lysine coated, black clear-bottom 384-well plates at 2500/well, in 25 μL Phenol Red Free Dulbecco's Modified Eagle Medium (DMEM) supplemented with 10% w/w charcoal-dextran treated fetal bovine serum (FBS) and 1% w/w pen-strep, with or without 10 ng/mL doxycycline. Pen-Strep is a commercially available mixture of penicillin G and streptomycin, which is used in mammalian cell culture media to prevent bacterial contamination. Phenol Red Free Dulbecco's Modified Eagle Medium (DMEM) supplemented with 10% w/w charcoal-dextran treated fetal bovine serum (FBS) and 1% w/w pen-strep, with or without 10 ng/mL doxycycline is herein referred to as Treatment Medium. Following seeding of cells in the plates, the plates were spun at 300×g for 30 seconds, then equilibrated to room temperature for 30 minutes, and then deposited in a humidified tissue culture incubator maintained at 37° C. with 5% CO2.
At 24 hours after seeding of the cells, dilutions of test compound were prepared in DMSO and dissolved in Treatment Medium, to achieve a final DMSO concentration of 0.5% w/w, thereby providing the Test Compound Solution. A 25 μL aliquot of the Test Compound Solution was added to cells in the well plates. An equal volume of a solution containing DMSO and Treatment Medium was used as a negative control. Following treatment of cells with Test Compound Solution or said equal volume of a solution containing DMSO and Treatment Medium, the plates were spun at 300×g for 30 seconds, and then left in an incubator for 72 hours.
At the end of the treatment duration, cell viability was quantified with CellTiter-Glo 2.0 reagent (Promega Cat #G9243). For this purpose, plates were equilibrated to room temperature for 30 minutes, and then 25 μL of CellTiter-Glo 2.0 reagent was added to cells in the plate wells. Plates were then agitated on a shaker for two minutes at 500 rpm and subsequently incubated at room temperature for 10 minutes. Following incubation, the plates were spun at 3000×g for 30 seconds, then sealed with an optical adhesive cover, and luminescence readings were measured with an EnVision Plate Reader (Perkin Elmer).
Data was normalized using zero luminescence for baseline. A four-parameter non-linear regression curve fit was applied to dose-response data in GraphPad Prism data analysis software to determine the half-maximal growth inhibitory concentration (GI50) for each test compound.

| Compound | Kd (BRD4-BD1) | GI50 (VCaP cells) | GI50 [1] |
| --- | --- | --- | --- |
| Cc1sc2c(c1C)C(c1ccc(Cl)cc1)=N[C@@H](CC(=O)NCCOC1CCN(c3ncc(C(=O)N[C@H]4C(C)(C)[C@H](Oc5ccc(C#N)c(Cl)c5)C4(C)C)cn3)CC1)c1nnc(C)n1-2 [Compound I-6] | > 2500 nM | < 500 nM | < 500 nM |
| CCNC(=O)C[C@@H]1N=C(c2ccc(OCCOC3CCN(c4ncc(C(=O)N[C@H]5C(C)(C)[C@H](Oc6ccc(C#N)c(Cl)c6)C5(C)C)cn4)CC3)cc2)c2c(sc(C)c2C)-n2c(C)nnc21 [Compound I-60, N-((1r,3r)-3-(3-chloro-4-cyanophenoxy)-2,2,4,4-tetramethylcyclobutyl)-2-(4-(2-(4-((S)-6-(2-(ethylamino)-2-oxoethyl)-2,3,9-trimethyl-6H-thieno[3,2-f][1,2,4]triazolo[4,3-a][1,4]diazepin-4-yl)phenoxy)ethoxy)piperidin-1-yl)pyrimidine-5-carboxamide] | 50 to 500 nM | 500 to 1500 nM | < 500 nM |
| CCNC(=O)C[C@@H]1N=C(c2ccc(N3CCN(CC4CCN(c5ncc(C(=O)N[C@H]6C(C)(C)[C@H](Oc7ccc(C#N)c(Cl)c7)C6(C)C)cn5)CC4)CC3)cc2)c2c(sc(C)c2C)-n2c(C)nnc21 [Compound I-105, N-[3-(3-chloro-4-cyano-phenoxy)-2,2,4,4-tetramethyl-cyclobutyl]-2-[4-[[4-[4-[(9S)-9-[2-(ethylamino)-2-oxo-ethyl]-4,5,13-trimethyl-3-thia-1,8,11,12-tetrazatricyclo[8.3.0.02,6]trideca-2(6),4,7,10,12-pentaen-7-yl]phenyl]piperazin-1-yl]methyl]-1-piperidyl]pyrimidine-5-carboxamide] | 50 to 500 nM | < 500 nM | < 500 nM |
| Cc1sc2c(c1C)C(c1ccc(CCCOC3CCN(c4ncc(C(=O)N[C@H]5C(C)(C)[C@H](Oc6ccc(C#N)c(Cl)c6)C5(C)C)cn4)CC3)cc1)=N[C@@H](Cc1ncco1)c1nnc(C)n1-2 [Compound I-131, N-[3-(3-chloro-4-cyano-phenoxy)-2,2,4,4-tetramethyl-cyclobutyl]-2-[4-[3-[4-[(9S)-4,5,13-trimethyl-9-(oxazol-2-ylmethyl)-3-thia-1,8,11,12-tetrazatricyclo[8.3.0.02,6]trideca-2(6),4,7,10,12-pentaen-7-yl]phenyl]propoxy]-1-piperidyl]pyrimidine-5-carboxamide] | > 2500 nM | < 500 nM | < 500 nM |
| COCC[C@@H]1N=C(c2ccc(CCCOC3CCN(c4ncc(C(=O)N[C@H]5C(C)(C)[C@H](Oc6ccc(C#N)c(Cl)c6)C5(C)C)cn4)CC3)cc2)c2c(sc(C)c2C)-n2c(C)nnc21 [Compound I-227, N-[3-(3-chloro-4-cyano-phenoxy)-2,2,4,4-tetramethyl-cyclobutyl]-2-[4-[3-[4-[(9S)-9-(2-methoxyethyl)-4,5,13-trimethyl-3-thia-1,8,11,12-tetrazatricyclo[8.3.0.02,6]trideca-2(6),4,7,10,12-pentaen-7-yl]phenyl]propoxy]-1-piperidyl]pyrimidine-5-carboxamide] | > 2500 nM | > 3000 nM | 500 to 1500 nM |
| Cc1sc2c(c1C)C(c1ccc(CCCOC3CCN(c4ncc(C(=O)N[C@H]5C(C)(C)[C@H](Oc6ccc(C#N)c(Cl)c6)C5(C)C)cn4)CC3)cc1)=N[C@@H](C)c1nnc(C)n1-2 [Compound I-228, N-[3-(3-chloro-4-cyano-phenoxy)-2,2,4,4-tetramethyl-cyclobutyl]-2-[4-[3-[4-[(9S)-4,5,9,13-tetramethyl-3-thia-1,8,11,12-tetrazatricyclo [8.3.0.02,6]trideca-2(6),4,7,10,12-pentaen-7-yl]phenyl]propoxy]-1-piperidyl]pyrimidine-5-carboxamide] | 500 to 2500 nM | < 500 nM | 500 to 1500 nM |
| Cc1sc2c(c1C)C(c1ccc(OCCOC3CCN(c4ncc(C(=O)N[C@H]5C(C)(C)[C@H](Oc6ccc(C#N)c(Cl)c6)C5(C)C)cn4)CC3)cc1)=N[C@@H](CC(=O)OC(C)(C)C)c1nnc(C)n1-2 [Compound I-235, tert-butyl 2-((S)-4-(4-(2-((1-(5-(((1r,3r)-3-(3-chloro-4-cyanophenoxy)-2,2,4,4-tetramethylcyclobutyl)carbamoyl)pyrimidin-2-yl)piperidin-4-yl)oxy)ethoxy)phenyl)-2,3,9-trimethyl-6H-thieno[3,2-f][1,2,4]triazolo[4,3-a][1,4]diazepin-6-yl)acetate] | > 2500 nM | < 500 nM | < 500 nM |

More lines, main results first:

| Kd (BRD4-BD1) | GI50 (VCaP cells) | Compound | GI50 [1] |
| --- | --- | --- | --- |
| 50 to 500 nM | < 500 nM | Cc1sc2c(c1C)C(c1ccc(Cl)cc1)=N[C@@H](CC(=O)NCCOCCOCCOCCOCCN(C)c1ncc(C(=O)N[C@H]3C(C)(C)[C@H](Oc4ccc(C#N)c(Cl)c4)C3(C)C)cn1)c1nnc(C)n1-2 [Compound I-3, N-((1r,3r)-3-(3-chloro-4-cyanophenoxy)-2,2,4,4-tetramethylcyclobutyl)-2-((1-((S)-4-(4-chlorophenyl)-2,3,9-trimethyl-6H-thieno[3,2-f][1,2,4]triazolo[4,3-a][1,4]diazepin-6-yl)-2-oxo-6,9,12,15-tetraoxa-3-azaheptadecan-17-yl)(methyl)amino)pyrimidine-5-carboxamide] | 1500 to 3000 nM |
| 500 to 2500 nM | < 500 nM | Cc1sc2c(c1C)C(c1ccc(Cl)cc1)=N[C@@H](CC(=O)NCCOCCOCCOC1CCN(c3ncc(C(=O)N[C@H]4C(C)(C)[C@H](Oc5ccc(C#N)c(Cl)c5)C4(C)C)cn3)CC1)c1nnc(C)n1-2 [Compound I-7] | < 500 nM |
| 500 to 2500 nM | < 500 nM | Cc1sc2c(c1C)C(c1ccc(Cl)cc1)=N[C@@H](CC(=O)NCCOCCOCCOCCOCCOC1CCN(c3ncc(C(=O)N[C@H]4C(C)(C)[C@H](Oc5ccc(C#N)c(Cl)c5)C4(C)C)cn3)CC1)c1nnc(C)n1-2 [Compound I-8] | 500 to 1500 nM |
| 500 to 2500 nM | < 500 nM | Cc1sc2c(c1C)C(c1ccc(Cl)cc1)=N[C@H](CC(=O)NCCOCCOCCOCCOCCOCCOCCOC1CCN(c3ncc(C(=O)N[C@H]4C(C)(C)[C@H](Oc5ccc(C#N)c(Cl)c5)C4(C)C)cn3)CC1)c1nnc(C)n1-2 [Compound I-9] | 1500 to 3000 nM |
